In assay [1] the target is T1, IDO1 enzyme in Hela cells (Homo sapiens, UniProt P14902).
T1 construct: recombinant human γ-interferon was added at a final concentration of 100 ng/mL to induce IDO1 expression; endogenous in cells; host or cells: Hela cells, induced with recombinant human γ-interferon
In words: hIDO1 cytological activity assay (kynurenine in Hela cells by LC-MS). The class given is cell-based. To be noted: Hela cells induced with 100 ng/mL recombinant human γ-interferon, 20 h, read-out: IC50 hIDO1 Cytoactive. Here is the method: The change of kynurenine in Hela cells was detected by the LC-MS method, and the IC50 value of the compound was used as an index, to evaluate the inhibitory effect of the compound on IDO1 enzyme.
A medium, trypsin and DPBS were pre-heated in a 37° C. water bath. The medium for cell culture was sucked out and washed with 10 mL of DPBS; then the pre-heated trypsin was added into the culture flask, and the flask was rotated to allow the trypsin to uniformly cover it, and then placed in a 37° C., 5% CO2 incubator and digested for 1-2 min; in each T150, cells were dispersed with 10-15 mL of medium, centrifuged at 800 rpm for 5 min, and then resuspended in 10 mL of medium; 1 mL of cell suspension was pipetted and the cells were counted with Vi-cell; Hela cells were diluted with medium to 5×10^5/mL, 80 μL of the solution was added to a 96-cell plate, and cultured at 37° C. for 5-6 h in a 5% CO2 incubator.
The compound was diluted to 1 mM in DMSO, and then diluted 3-fold in duplicate wells, with 9 gradients. 5 μL of the diluted solution of the compound in DMSO was added to the compound plate containing 95 μL of the medium, and mixed, followed by transferring 10 μL of the mixture to a cell plate.
10 μL of recombinant human γ-interferon was added at a final concentration of 100 ng/mL to induce IDO1 expression. The cells were incubated at 37° C. for 20 h in a 5% CO2 incubator. 4 μL of 5% (w/v) trichloroacetic acid was added thereto, mixed and incubated at 50° C. for 30 min. After centrifugation at 2400 rpm for 10 min, 40 μL of the supernatant was taken and placed in a 96-well V-bottom plate, and then a precipitant was added in the plate. After mixing, the mixture was centrifuged at 4000 rpm for 10 min. 100 μL of the supernatant was transferred to a new 96-well V-bottom plate. The content of kynurenine was determined by LC-MS.
The control wells having γ-interferon but no compound was set as 0% inhibition, and the control wells without Hela cell was set as 100% inhibition, and the IC50 value of the compound was calculated by analyzing the data with XLFit 5.

The target of assay [2] is T2, recombinant human IDO1 enzyme (Homo sapiens, UniProt P14902).
T2 construct: purchased NTRC NTRC-hlDO-10K
In words: In vitro hIDO1 enzyme activity test (NFK Green fluorescence). The class given is biochemical. The note with it: recombinant human IDO1, L-tryptophan substrate, pH 6.5. The method in brief:
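Recombinant human IDO1 diluted to 20 nM in pH 6.5 phosphate buffer with ascorbate, catalase and methylene blue, preincubated with compound 30 min at 23° C, then L-tryptophan added (400 μM solution) for 90 min. NFK Green developed 4 h at 37° C (Ex 400/Em 510 nm); IC50 from 10-point 3-fold series, no-enzyme wells as 100% inhibition.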

For another assay, the target named is IDO1 (Mus musculus, UniProt P28776). The assay can be described thus: In vivo pharmacodynamics of IDO1: Kyn level in lung and plasma of LPS-induced C57BL/6 mice.

Results on eleven molecules are retold here after patent US10487088B2, “Tricyclic compound serving as immunomodulator” (Chia Tai Tianqing Pharmaceutical Group Co., Ltd., priority 2016, dated 2019).

Entries after “also recorded” stand apart in the source; their conditions may differ. Some results are limits rather than exact numbers.

IDO1, sequence (P28776 whole entry): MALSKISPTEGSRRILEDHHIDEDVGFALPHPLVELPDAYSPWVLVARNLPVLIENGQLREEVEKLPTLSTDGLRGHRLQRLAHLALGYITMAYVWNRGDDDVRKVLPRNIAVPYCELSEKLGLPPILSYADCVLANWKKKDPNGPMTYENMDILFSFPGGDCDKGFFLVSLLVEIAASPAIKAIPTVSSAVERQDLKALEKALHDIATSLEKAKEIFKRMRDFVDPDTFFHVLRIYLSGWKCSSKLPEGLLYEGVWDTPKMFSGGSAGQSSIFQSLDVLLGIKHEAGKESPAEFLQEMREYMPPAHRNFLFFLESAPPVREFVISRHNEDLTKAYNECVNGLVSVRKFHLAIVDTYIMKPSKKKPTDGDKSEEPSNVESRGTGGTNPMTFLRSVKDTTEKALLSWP
T1 sequence (P14902 whole entry): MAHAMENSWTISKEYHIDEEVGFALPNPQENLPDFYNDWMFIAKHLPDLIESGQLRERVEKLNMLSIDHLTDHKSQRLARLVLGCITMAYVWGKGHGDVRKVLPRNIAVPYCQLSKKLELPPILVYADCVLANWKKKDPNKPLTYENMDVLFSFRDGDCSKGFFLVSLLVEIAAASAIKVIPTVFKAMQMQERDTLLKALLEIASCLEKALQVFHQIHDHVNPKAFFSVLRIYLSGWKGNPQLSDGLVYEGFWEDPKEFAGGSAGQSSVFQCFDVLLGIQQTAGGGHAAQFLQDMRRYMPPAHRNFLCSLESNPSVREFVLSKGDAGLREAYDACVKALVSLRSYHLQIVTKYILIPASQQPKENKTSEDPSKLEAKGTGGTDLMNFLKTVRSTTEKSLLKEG
T2 sequence (P14902 whole entry): as above

For orientation: IC50 means the midpoint of a concentration-inhibition curve. For `OC(CC1c2sccc2-c2cncn21)C1CCCCC1` (single isomer, unassigned) [Example 7, cyclohexyl-2-(8H-thieno[3′,2′:3,4]pyrrolo[1,2-c]imidazol-8-yl)ethanol], the figures for the IC50 in assay [1] and in assay [2] were 5.08 nM and 7.22 nM, respectively. For the same molecule, the “in vivo activity of IDO1 / reduction of the Kyn level in lung and plasma” value at IDO1 (50 mg/kg orally at 0, 12 h and 24 h after induction, plasma 1-6 h, lung 2 h and 6 h after last administration) is “effectively inhibited in vivo activity of IDO1 and caused reduction of the Kyn level in lung and plasma”. For the same molecule, on IDO1 (50 mg/kg orally, comparison with NLG919 at same dose, 50 mg/kg), the “degree of Kyn level reduction in lung and plasma compared to NLG919” value is “more significant than that of NLG919; also recorded: significantly reduced the Kyn level in lung and plasma”.
For the molecule `FC1(F)[C@@H]2C[C@@H](C3c4sccc4-c4cncn43)C[C@@H]21` (single isomer, unassigned) [Example 63, 8-[6,6-difluoro-3-bicyclo[3.1.0]cyclohexyl]-8H-thieno[3,4]pyrrolo[1,5-a]imidazole (trans)], the IC50 in assay [1] was above 5000 nM; in assay [2] it was 8800 nM.
As to `c1cc2c(s1)C(C1CCCCCC1)n1cncc1-2` (single isomer, unassigned) [Example 72, 8-cycloheptyl-8H-thieno[3,4]pyrrolo[1,5-a]imidazole], the figures for the concentration for half-maximal inhibition (IC50) in assay [1] and in assay [2] were 223 nM and 99.9 nM, respectively.
As to `c1cc2c(s1)C(C1CCCCCC1)n1cncc1-2` (single isomer, unassigned) [Example 73, 8-cycloheptyl-8H-thieno[3,4]pyrrolo[1,5-a]imidazole], the concentration for half-maximal inhibition (IC50) was above 5000 nM in assay [1] and above 10000 nM in assay [2].
For `FC1(F)C2CC(C3c4sccc4-c4cncn43)CC21` (single isomer, unassigned) [Example 77, 8-(6,6-difluoro-3-bicyclo[3.1.0]cyclohexyl)-8H-thieno[3,4]pyrrolo[1,5-a]imidazole (cis)] the same measures were 125 nM and 37 nM.
For `OC1CCCCC1C1c2sccc2-c2cncn21` (single isomer, unassigned) [Example 85], in that order: 159 nM and 27.2 nM.
With `OC1CCC(C2c3sccc3-c3cncn32)CC1` (single isomer, unassigned) [Example 117, 4-(8H-thieno[3,4]pyrrolo[1,5-a]imidazol-8-yl)-cyclohexanol], the IC50 in assay [1] came to 891 nM; in assay [2], 215 nM.
For `CC(C)(C(O)C1CCCCC1)C1c2sccc2-c2cncn21` (single isomer, unassigned) [Example 119, 1-cyclohexyl-2-methyl-2-(8H-thieno[3,4]pyrrolo[1,5-a]imidazol-8-yl)-propan-1-ol], the 50% inhibitory concentration (IC50) in assay [1] worked out at 1980 nM; in assay [2] it was 390 nM.
Consider `OC(CC1c2ccsc2-c2cncn21)C1CCCCC1` (stereo not drawn) [Example 4, 1-cyclohexyl-2-(4H-thieno[3,4]pyrrolo[1,5-a]imidazol-4-yl)ethanol], for which the IC50 turned out to be 613 nM in assay [1] and 83.6 nM in assay [2].
`FC1(CCC2c3sccc3-c3cncn32)CCCCC1` (stereo not drawn) [Example 39, 8-(2-(1-fluorocyclohexyl)ethyl)-8H-thieno[3′,2′:3,4]pyrrolo[1,2-c]imidazole]: the IC50 in assay [1] is 90.5 nM; in assay [2], 46 nM.
As to `O[C@@H](C[C@H]1c2sccc2-c2cncn21)C1CCC(F)(F)CC1` [Example 46, (1S)-1-(4,4-difluorocyclohexyl)-2-((S)-8H-thieno[3,4]pyrrolo[1,5-a]imidazol-8-yl)ethanol], the concentration for half-maximal inhibition (IC50) in assay [1] was determined as 28 nM; in assay [2] it was 11.4 nM.
